Where a name gives a salt, the structure may show the parent alone.
Columns and labels:
[1] = test system: isolated rat mesenteric lymph vessels; conditions: cited from earlier work; for rhythmic contractions of isolated rat mesenteric lymph vessels: exposure to KATP channel openers
CD31 and VE-Cadherin = experiment: Expression of biomarker proteins for hyperemia and vessel integrity; conditions: compared to Y-27632, a Rho kinase inhibitor
Excerpt: Furthermore, the effect of levcromakalim on selected biomarkers for hyperemia and perturbations to vessel integrity has been established.

[2] = trials terminated; most likely due to poor bioavailability; cited from earlier work
[3] = cited from earlier work
KATP channels = conditions: membrane patches from rabbit mesenteric arterial smooth muscle cells, in the presence of ATP; cited from earlier work
[4] = in vivo; cited from earlier work

| Compound | rhythmic contractions of isolated rat mesenteric lymph vessels [1] | impact on expression of measured proteins indicative of tissue and vessel integrity (CD31 and VE-Cadherin) | contractions of the vessels at increasing concentrations ([1]; increasing concentrations, flow impaired by attenuating frequency and amplitude) | outcome of human clinical trials [2] | solubility in water [3] | increase of open-state probability (Popen) of single KATP channels (KATP channels) | effect on blood pressure [4] |
| --- | --- | --- | --- | --- | --- | --- | --- |
| Nc1cc(N2CCCCC2)nc(N)[n+]1OS(=O)(=O)[O-] [minoxidil sulfate] | progressively impaired | – | – | – | – | – | – |
| CC1(C)Oc2ccc(C#N)cc2[C@@H](N2CCCC2=O)[C@@H]1O [Levcromakalim, levcromakalim] | – | no significant impact | – | – | – | – | – |
| CC1(C)Oc2ccc(C#N)cc2C(N2CCCC2=O)C1O (stereo not shown) [Cromakalim, cromakalim] | progressively impaired | – | ultimately abolished the contractions | lack of activity | substantially insoluble in water | more than 9 fold | lower blood pressure |
| CC1=NS(=O)(=O)c2cc(Cl)ccc2N1 [diazoxide] | progressively impaired | – | – | – | – | – | lower blood pressure |
